Values after ≈ are worked out from the molar mass of the structure shown. Where two headings read alike, the source gives them in different places.
Tests used:
[1] = tested on: APAE006 in the presence of 8 micrograms per milliliter of polymyxin B nonapeptide; type: cell-based, P. aeruginosa; details: APAE006 with 8 micrograms per milliliter polymyxin B nonapeptide
Procedure, shortened: (§1)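 Broth microdilution (CLSI); CA-MHB; 3×10^5–7×10^5 CFU/mL final; 2-fold dilutions; 35° C., ambient air, 18-24 h. APAE006 lacks all active efflux pumps.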

[2] = tested on: AECO063 (ATCC25922 bearing an acrAB mutation); experiment: microbe, parasite or virus in culture; type: cell-based, E. coli; details: Escherichia coli, ATCC25922, read-out: MIC AECO063
Procedure, shortened: (§2)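 Inocula prepared from 0.5 McFarland suspensions (final 3×10^5–7×10^5 CFU/mL) were added to 2-fold drug dilution series in cation-adjusted Mueller-Hinton broth. Plates stood 18-24 hours at 35° C. under ambient air.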

[3] = tested on: AECO001 (ATCC25922); experiment: MIC broth microdilution, AECO001; type: cell-based, E. coli; details: for MIC: Escherichia coli
Procedure, shortened: as §2

[4] = tested on: APAE001 (ATCC27853); experiment: MIC broth microdilution, APAE001; type: cell-based, P. aeruginosa; details: Pseudomonas aeruginosa, ATCC27853, read-out: MIC APAE001, APAE001 (ATCC27853)
Procedure, shortened: as §2

[5] = tested on: AABA1060 (clinical isolate of Acinetobacter baumannii); experiment: MIC broth microdilution, AABA1060; type: cell-based; details: Acinetobacter baumannii, read-out: MIC AABA1060
Procedure, shortened: as §2

[6] = tested on: APAE006 (strain of P. aeruginosa in which all efflux pumps are inactivated); experiment: microbe, parasite or virus in culture; type: cell-based; details: Pseudomonas aeruginosa, read-out: MIC APAE006, APAE006, all efflux pumps inactivated
Procedure, shortened: as §1

[7] = tested on: ASAU001 (laboratory strain of S. aureus, ATCC29213); experiment: MIC broth microdilution, ASAU001; type: cell-based; details: Staphylococcus aureus, ATCC29213, read-out: MIC ASAU001
Procedure, shortened: as §2

[8] = ATCC25922, read-out: MIC AECO001
[9] = ATCC25922, read-out: MIC AECO001 HSA AGP

| Compound | MIC APAE006 + PMBN [1] | MIC [2] [µg/mL] | MIC [3, 8] [µg/mL] | MIC [3, 9] [µg/mL] | MIC [4] [µg/mL] | MIC [5] [µg/mL] | MIC [6] [µg/mL] | MIC [7] [µg/mL] | Ratio of MICs on AECO001 [Cpd (A = —CHCH3NH2)/Cpd (A = —C(CH3)2NH2)] ([3]; MIC of paired compound with A = —CHCH3NH2 divided by MIC of compound with A = —C(CH3)2NH2, n=2 data, pairs identical except for the A moiety) |
| --- | --- | --- | --- | --- | --- | --- | --- | --- | --- |
| C[C@@H](N)[C@H](NC(=O)c1ccc(C#CC#Cc2ccc(O)cc2)cc1)C(=O)NO [Example 83-2] | A (MIC's of 2.0 μg/mL or less = A) | < 2 | < 2 | 16 to 64 (≈ 42.4 to 170 µM) | < 2 | 2 to 16 (≈ 5.3 to 42.4 µM) | < 2 | 16 to 64 (≈ 42.4 to 170 µM) |  |
| C[C@@H](O)[C@H](NC(=O)c1ccc(/C=C/C#Cc2ccc(F)cc2)cc1)C(=O)NO [Example 114-11] | A (MIC's of 2.0 μg/mL or less = A) | < 2 | < 2 | 16 to 64 (≈ 41.8 to 167 µM) | 16 to 64 (≈ 41.8 to 167 µM) | 2 to 16 (≈ 5.23 to 41.8 µM) | < 2 | 16 to 64 (≈ 41.8 to 167 µM) |  |
| CC(C)CCC#CC#Cc1ccc(C(=O)N[C@H](C(=O)NO)C(C)(C)O)cc1 [Example 91-18] | A (MIC's of 2.0 μg/mL or less = A) | < 2 | < 2 | < 2 | 2 to 16 (≈ 5.4 to 43.2 µM) | 2 to 16 (≈ 5.4 to 43.2 µM) | 2 to 16 (≈ 5.4 to 43.2 µM) | 16 to 64 (≈ 43.2 to 173 µM) |  |
| C[C@H](C#CC#Cc1ccc(C(=O)N[C@H](C(=O)NO)[C@@H](C)N)cc1)N1CCOCC1 [Example 92-1, N-((2S,3R)-3-amino-1-(hydroxyamino)-1-oxobutan-2-yl)-4-((R)-5-morpholinohexa-1,3-diynyl)benzamide] | A (MIC's of 2.0 μg/mL or less = A) | 2 to 16 (≈ 5.02 to 40.2 µM) | 2 to 16 (≈ 5.02 to 40.2 µM) | 16 to 64 (≈ 40.2 to 161 µM) | 2 to 16 (≈ 5.02 to 40.2 µM) | 16 to 64 (≈ 40.2 to 161 µM) | < 2 | 16 to 64 (≈ 40.2 to 161 µM) |  |
| C[C@@H](N)[C@H](NC(=O)c1ccc(C#Cc2ccc(OC3CC3)cc2)cc1)C(=O)NO [Example 125-1, N-((1S,2R)-2-Amino-1-hydroxycarbamoyl-propyl)-4-(4-cyclopropoxy-phenylethynyl)-benzamide] | A (MIC's of 2.0 μg/mL or less = A) | < 2 | < 2 | 2 to 16 (≈ 5.08 to 40.7 µM) | 2 to 16 (≈ 5.08 to 40.7 µM) | < 2 | < 2 | 16 to 64 (≈ 40.7 to 163 µM) |  |
| CC(C)(O)[C@H](NC(=O)c1ccc(C#CC#Cc2ccc(CN3CCOCC3)cc2)cc1)C(=O)NO [Example 86-4] | A (MIC's of 2.0 μg/mL or less = A) | < 2 | < 2 | 2 to 16 (≈ 4.21 to 33.6 µM) | 2 to 16 (≈ 4.21 to 33.6 µM) | 2 to 16 (≈ 4.21 to 33.6 µM) | < 2 | 16 to 64 (≈ 33.6 to 135 µM) |  |
| C[C@@H](N)[C@H](NC(=O)c1ccc(C#C/C=C/c2ccncc2)cc1)C(=O)NO [Example 106-3] | A (MIC's of 2.0 μg/mL or less = A) | < 2 | < 2 | 16 to 64 (≈ 43.9 to 176 µM) | < 2 | 16 to 64 (≈ 43.9 to 176 µM) | < 2 | 16 to 64 (≈ 43.9 to 176 µM) |  |
| C[C@@H](N)[C@H](NC(=O)c1ccc(C#CC#Cc2ccc(CNCC(F)F)cc2)cc1)C(=O)NO [Example 86-1, N-((1S,2R)-2-Amino-1-hydroxycarbamoyl-propyl)-4-(4-{4-[(2,2-difluoro-ethylamino)-methyl]-phenyl}-buta-1,3-diynyl)-benzamide] | A (MIC's of 2.0 μg/mL or less = A) | < 2 | < 2 | 2 to 16 (≈ 4.4 to 35.2 µM) | < 2 | 2 to 16 (≈ 4.4 to 35.2 µM) | < 2 | 16 to 64 (≈ 35.2 to 141 µM) |  |
| C[C@@H](N)[C@H](NC(=O)c1ccc(C#Cc2ccc(COCC(F)(F)F)cc2)cc1)C(=O)NO [Example 124-1, N-((1S,2R)-2-Amino-1-hydroxycarbamoyl-propyl)-4-[4-(2,2,2-trifluoro-ethoxymethyl)-phenylethynyl]-benzamide] | A (MIC's of 2.0 μg/mL or less = A) | < 2 | < 2 | 2 to 16 (≈ 4.45 to 35.6 µM) | 2 to 16 (≈ 4.45 to 35.6 µM) | 16 to 64 (≈ 35.6 to 142 µM) | < 2 | 16 to 64 (≈ 35.6 to 142 µM) |  |
| CC(C)(N)[C@H](NC(=O)c1ccc(C#Cc2ccc(CN3CCS(=O)(=O)CC3)cc2)cc1)C(=O)NO [Example 122-4] | A (MIC's of 2.0 μg/mL or less = A) | < 2 | < 2 | 2 to 16 (≈ 4.01 to 32.1 µM) | < 2 | < 2 | < 2 | 16 to 64 (≈ 32.1 to 128 µM) |  |
| CCCC#CC#Cc1ccc(C(=O)N[C@H](C(=O)NO)C(C)(C)N)cc1 [Example 91-9] | A (MIC's of 2.0 μg/mL or less = A) | < 2 | < 2 | < 2 | < 2 | < 2 | < 2 | 2 to 16 (≈ 5.86 to 46.9 µM) | 5.2 |

Source: patent publication US9617256B2 (priority 2007, dated 2017)
